For this test, the target named is GST-Bcl-2 (Homo sapiens, UniProt P10415). As to the kind of experiment: Time Resolved-Fluorescence Resonance Energy Transfer (TR-FRET) Bcl-2 binding assay. Conditions: GST-Bcl-2 1 nM, F-Bak peptide probe 100 nM, Tb-anti-GST 1 nM; 3 hours at room temperature; Ki by Wang's equation. The protocol: Determination of the utility of compounds having Formula (I) as binders to and inhibitors of anti-apoptotic Bcl-2 proteins was performed using the Time Resolved-Fluorescence Resonance Energy Transfer (TR-FRET) Assay. Tb-anti-GST antibody was purchased from Invitrogen (Catalog No. PV4216).
GST-Bcl-2, sequence (P10415 whole entry): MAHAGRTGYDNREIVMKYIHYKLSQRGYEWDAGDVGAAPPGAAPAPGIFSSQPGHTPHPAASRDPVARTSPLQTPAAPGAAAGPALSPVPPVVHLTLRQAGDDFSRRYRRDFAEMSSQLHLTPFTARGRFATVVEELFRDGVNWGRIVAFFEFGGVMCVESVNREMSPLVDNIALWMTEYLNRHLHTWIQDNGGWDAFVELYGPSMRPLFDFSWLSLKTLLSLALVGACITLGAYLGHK
Representative compounds were serially diluted in dimethyl sulfoxide (DMSO) starting at 50 μM (2x starting concentration; 10% DMSO) and 10 μL were transferred into a 384-well plate. The samples are then mixed on a shaker for 1 minute and incubated for an additional 3 hours at room temperature. For each assay, the probe/antibody and protein/probe/antibody were included on each assay plate as negative and positive controls, respectively. Fluorescence was measured on the ENVISION plate reader (Perkin Elmer) using a 340/35 nm excitation filter and 520/525 (F-Bak peptide) and 495/510 nm (Tb-labeled […] antibody) emission filters. Inhibition constants (Ki) are shown in TABLE 2 below and were determined using Wang's equation (Wang Z.-X. An Exact Mathematical Expression For Describing Competitive Binding Of Two Different Ligands To A Protein Molecule. FEBS Lett. 1995, 360:111-4).
The inhibition constant (Ki) is the dissociation constant of an enzyme-inhibitor complex or a protein/small molecule complex, wherein the small molecule is inhibiting binding of one protein to another protein. So a large Ki value indicates a low binding affinity and a small Ki value indicates a high binding affinity.
The compounds are therefore expected to have utility in treatment of diseases during which anti-apoptotic Bcl-2 protein is expressed.
Broadly, the Ki is a measure of affinity in units of concentration, obtained from inhibition or displacement. A low value points to higher affinity. Consider `CC1(C)CCC(CN2CCN(c3ccc(C(=O)NS(=O)(=O)c4cccc(F)c4)c(Oc4ccc5[nH]ccc5c4)c3)CC2)=C(c2ccc(Cl)cc2)C1` [Example 35, 4-(4-{[2-(4-chlorophenyl)-4,4-dimethylcyclohex-1-en-1-yl]methyl}piperazin-1-yl)-N-[(3-fluorophenyl)sulfonyl]-2-(1H-indol-5-yloxy)benzamide], for which the affinity corresponds to a Ki of 8.84 nM. The figure for `CC1(C)CCC(CN2CCN(c3ccc(C(=O)NS(=O)(=O)c4ccc5ccccc5c4)c(Oc4ccc5[nH]ccc5c4)c3)CC2)=C(c2ccc(Cl)cc2)C1` [Example 36, 4-(4-{[2-(4-chlorophenyl)-4,4-dimethylcyclohex-1-en-1-yl]methyl}piperazin-1-yl)-2-(1H-indol-5-yloxy)-N-(2-naphthylsulfonyl)benzamide] is 31.7 nM; for `CC1(C)CCC(CN2CCN(c3ccc(C(=O)NS(=O)(=O)c4cccc5cnccc45)c(Oc4ccc5[nH]ccc5c4)c3)CC2)=C(c2ccc(Cl)cc2)C1` [Example 37, 4-(4-{[2-(4-chlorophenyl)-4,4-dimethylcyclohex-1-en-1-yl]methyl}piperazin-1-yl)-2-(1H-indol-5-yloxy)-N-(isoquinolin-5-ylsulfonyl)benzamide] it is 10.6 nM. The figure for `CC1(C)CCC(CN2CCN(c3ccc(C(=O)NS(=O)(=O)c4ccc(Cl)c([N+](=O)[O-])c4)c(Oc4cccc5[nH]ncc45)c3)CC2)=C(c2ccc(Cl)cc2)C1` [Example 38, N-[(4-chloro-3-nitrophenyl)sulfonyl]-4-(4-{[2-(4-chlorophenyl)-4,4-dimethylcyclohex-1-en-1-yl]methyl}piperazin-1-yl)-2-(1H-indazol-4-yloxy)benzamide] is 0.174 nM.

These data come from patent US8426422B2, “Apoptosis-inducing agents for the treatment of cancer and immune and autoimmune diseases” (Abbvie Inc., priority 2009, dated 2013).
